This data set has as its target MALAT1. The following applies: ASO, A431, 0.005 µM.

“And” between values parts separate entries of the source, which are not always exact repeats. Equal entries are not always repeated. After the bases stand the sugars from the 5' end (letter, count) and the backbone: PS all phosphorothioate, else s phosphorothioate and o phosphodiester by linkage. Methylation of C is not given here. k = constrained ethyl (cEt); d = 2'-deoxy (DNA)

Turning to TCTCAGGGTTATGCTT (sugars k3 d10 k3, PS), the target mRNA inhibition was 59% and 81%.

Regarding CAACTCTTCTGATAAC (sugars k3 d10 k3, PS), the target mRNA inhibition stood at 16%.

For the sequence AGGCAAACGAAACATT (sugars k3 d10 k3, PS), the target mRNA inhibition came out at 35%.

Regarding GCCGACCTCACGGATT (sugars k3 d10 k3, PS), the target mRNA inhibition was determined as 45%.

On to CTGCTACCTTCATCAC (sugars k3 d10 k3, PS), for which the target mRNA inhibition came out at 39%.

Take TCCCAACCGTAACAGG (sugars k3 d10 k3, PS): the target mRNA inhibition was determined as 2%.

Consider ATAACGAAGAGATACC (sugars k3 d10 k3, PS), for which the target mRNA inhibition stood at 6%.

On to ATACGACTGCTTAAAA (sugars k3 d10 k3, PS), for which the target mRNA inhibition turned out to be 20%.

In the case of GGAAAAGTGGTTGCCC (sugars k3 d10 k3, PS), the target mRNA inhibition is 24%.

TGTTAAGAGAAGCCCA (sugars k3 d10 k3, PS): the target mRNA inhibition turned out to be 2%.

Consider CCTATAAGGACAGCTA (sugars k3 d10 k3, PS), for which the target mRNA inhibition is 15%.

As for CTGCATTTACTTGCCA (sugars k3 d10 k3, PS), the target mRNA inhibition was 17%.

With CCACAACAATTTAGAG (sugars k3 d10 k3, PS), the target mRNA inhibition is -27%.

As to TACCAACCACTCGCTT (sugars k3 d10 k3, PS), the target mRNA inhibition came out at 1%.

Turning to CACTTGCCAGTTTAAT (sugars k3 d10 k3, PS), the target mRNA inhibition was found to be 29%.

On to GACCAACCCCCAGTTC (sugars k3 d10 k3, PS), for which the target mRNA inhibition was found to be 3%.

For TTAAAGAGTGTTCGCA (sugars k3 d10 k3, PS), the target mRNA inhibition is 59% and 39%.

In the case of CTATAGTCTGAAGAAT (sugars k3 d10 k3, PS), the target mRNA inhibition was found to be 22%.

With AGCACCGCTTGAGATT (sugars k3 d10 k3, PS), the target mRNA inhibition is 42% and 20%.

Regarding CGCCTTTGTGAGGGAG (sugars k3 d10 k3, PS), the target mRNA inhibition was -3%.

Take GACAGATTAGTAGTCA (sugars k3 d10 k3, PS): the target mRNA inhibition is -12%.

As to GAGGCAAACGAAACAT (sugars k3 d10 k3, PS), the target mRNA inhibition was 1%.

Regarding TTATCAATTCACCAAG (sugars k3 d10 k3, PS), the target mRNA inhibition is 25%.

As for AAGCTACAACAAGTAA (sugars k3 d10 k3, PS), the target mRNA inhibition is 10%.

In the case of AAGTATTACTCTAATC (sugars k3 d10 k3, PS), the target mRNA inhibition worked out at 9%.

In the case of CAGACAAGATTCATGA (sugars k3 d10 k3, PS), the target mRNA inhibition worked out at 19%.

As to AAGTAGACCAACTAAG (sugars k3 d10 k3, PS), the target mRNA inhibition is -22%.

AAATCCTGATCTGGTC (sugars k3 d10 k3, PS): the target mRNA inhibition is 27%.

TGAAAACCCACTCTTG (sugars k3 d10 k3, PS): the target mRNA inhibition worked out at 0%.

On to CCTACCACTCCCAATT (sugars k3 d10 k3, PS), for which the target mRNA inhibition is 21%.

With CACTGGATAAGTATTA (sugars k3 d10 k3, PS), the target mRNA inhibition was 40%.

Regarding TTGCTCGCTTGCTCCT (sugars k3 d10 k3, PS), the target mRNA inhibition turned out to be 40%.

Take GCCTTCCCGTACTTCT (sugars k3 d10 k3, PS): the target mRNA inhibition is 60% and 53%.

As to GGGTTAAGCACTTTTA (sugars k3 d10 k3, PS), the target mRNA inhibition worked out at 57%.

As to GAAAGTGCTCACAAGG (sugars k3 d10 k3, PS), the target mRNA inhibition turned out to be 6%.

On to CAGAAGTCTCGGGCTG (sugars k3 d10 k3, PS), for which the target mRNA inhibition worked out at 19%.

In the case of GAAATCTATTCAATAC (sugars k3 d10 k3, PS), the target mRNA inhibition turned out to be 24%.

As for CTGAAGTTCTCCTGAG (sugars k3 d10 k3, PS), the target mRNA inhibition worked out at 38%.

For GCCTCCTCAATCCACT (sugars k3 d10 k3, PS), the target mRNA inhibition was 16%.

On to CCTCACAAAACCCCCG (sugars k3 d10 k3, PS), for which the target mRNA inhibition was -13%.

Consider CTGTTATGTTCACCTG (sugars k3 d10 k3, PS), for which the target mRNA inhibition is 56% and 77%.

On to CCAAGCCAAGCCGCCT (sugars k3 d10 k3, PS), for which the target mRNA inhibition was 5%.

As to AGATTAGTAGTCAAAG (sugars k3 d10 k3, PS), the target mRNA inhibition is -12%.

CGTGTTGTTTTCTCAG (sugars k3 d10 k3, PS): the target mRNA inhibition was 23%.

TCCCCAATCAAGATTT (sugars k3 d10 k3, PS): the target mRNA inhibition came out at 18%.

Turning to GCTACTATATTTAAGG (sugars k3 d10 k3, PS), the target mRNA inhibition worked out at 29%.

As to TTAATGCACTGGTACA (sugars k3 d10 k3, PS), the target mRNA inhibition worked out at 22%.

CGTTTTTCAGCTTCCA (sugars k3 d10 k3, PS): the target mRNA inhibition came to 7%.

With TTATAATAGAGCTACT (sugars k3 d10 k3, PS), the target mRNA inhibition turned out to be 4%.

Turning to GAAGTGTACTATCCCA (sugars k3 d10 k3, PS), the target mRNA inhibition is 72% and 93%.

For CCTCAGTACGAAACTC (sugars k3 d10 k3, PS), the target mRNA inhibition came to 16%.

For the sequence TTGCCGACCTCACGGA (sugars k3 d10 k3, PS), the target mRNA inhibition came out at 30%.

In the case of TTTGGCATATGCAGAT (sugars k3 d10 k3, PS), the target mRNA inhibition came to 24%.

As to CGCTCAAATCCTGATC (sugars k3 d10 k3, PS), the target mRNA inhibition is 23%.

Consider TTATAGCTTGACAAGC (sugars k3 d10 k3, PS), for which the target mRNA inhibition stood at 37%.

As to ACGAAAGTCCTTCACA (sugars k3 d10 k3, PS), the target mRNA inhibition was 11%.

Regarding GAATTCAACTGGAAGC (sugars k3 d10 k3, PS), the target mRNA inhibition stood at 7%.

Take TTATAGACGGAGAACA (sugars k3 d10 k3, PS): the target mRNA inhibition is 8%.

Turning to ACCTTAACATCTTGTT (sugars k3 d10 k3, PS), the target mRNA inhibition is 15%.

Turning to TAGTCTGAAGAATACC (sugars k3 d10 k3, PS), the target mRNA inhibition was found to be 23%.

For the sequence GATAAAAGCAGCTCCA (sugars k3 d10 k3, PS), the target mRNA inhibition came out at 30%.

Regarding CTCAATTTGGCTATCA (sugars k3 d10 k3, PS), the target mRNA inhibition is 60% and 80%.

Turning to TTACATGTTCCCACCC (sugars k3 d10 k3, PS), the target mRNA inhibition is 19%.

With TGAGTGGTTTTATCTA (sugars k3 d10 k3, PS), the target mRNA inhibition was found to be 7%.

Take TACTTAGCTGTGGTTT (sugars k3 d10 k3, PS): the target mRNA inhibition is 23%.

As for ACGCCTCAATCCCACA (sugars k3 d10 k3, PS), the target mRNA inhibition came out at 27%.

In the case of ACCTAAACCCACCCCA (sugars k3 d10 k3, PS), the target mRNA inhibition was -1%.

With TACAAACTGCTTACAG (sugars k3 d10 k3, PS), the target mRNA inhibition came out at 39%.

With ACTTTAAATTGGTAGC (sugars k3 d10 k3, PS), the target mRNA inhibition worked out at 28%.

As for TTTAAGGTTGCATCTG (sugars k3 d10 k3, PS), the target mRNA inhibition is 41%.

Consider GCCAAGCACTCATATG (sugars k3 d10 k3, PS), for which the target mRNA inhibition was 24%.

For TACTCTTGATCTTGAA (sugars k3 d10 k3, PS), the target mRNA inhibition came to 46%.

In the case of GTATTTATAGACGGAG (sugars k3 d10 k3, PS), the target mRNA inhibition was determined as 0%.

As for CTCCCCCATTATATTA (sugars k3 d10 k3, PS), the target mRNA inhibition was determined as 31%.

For TAGCAGTAACATCTGA (sugars k3 d10 k3, PS), the target mRNA inhibition amounted to 46%.

For the sequence TTGGTTACCAATAATT (sugars k3 d10 k3, PS), the target mRNA inhibition was 24%.

Consider GTAACTTTAAATTGGT (sugars k3 d10 k3, PS), for which the target mRNA inhibition was 55% and 63%.

Take CTTAACAGCTTATGGA (sugars k3 d10 k3, PS): the target mRNA inhibition was 30%.

In the case of CCCTTCCCTATATAAG (sugars k3 d10 k3, PS), the target mRNA inhibition amounted to 5%.

With GGACTTGGCAGTCTGC (sugars k3 d10 k3, PS), the target mRNA inhibition turned out to be 27%.

In the case of CTTCGCCTTCCCGTAC (sugars k3 d10 k3, PS), the target mRNA inhibition worked out at 35%.

As to GAACTATCACAATTCT (sugars k3 d10 k3, PS), the target mRNA inhibition was determined as 3%.

For the sequence ATACTCTTCCAAGGAT (sugars k3 d10 k3, PS), the target mRNA inhibition is 35%.

For the sequence ACCACTCGCTTTCCCT (sugars k3 d10 k3, PS), the target mRNA inhibition is 35%.

On to TAAATTGATGGGCTTT (sugars k3 d10 k3, PS), for which the target mRNA inhibition was 37%.

Take AGGGACGGTTGAGAAG (sugars k3 d10 k3, PS): the target mRNA inhibition was 14%.

In the case of TCACAAGGCAAATCGC (sugars k3 d10 k3, PS), the target mRNA inhibition was determined as 7%.

As to GTGGCCTTGGCACACT (sugars k3 d10 k3, PS), the target mRNA inhibition was -10%.

In the case of ATTACCCCAACTAAAC (sugars k3 d10 k3, PS), the target mRNA inhibition came out at 9%.

In the case of TCCTTAGTTGGCATCA (sugars k3 d10 k3, PS), the target mRNA inhibition was 76% and 68%.

Take TAAATACCACCACCTG (sugars k3 d10 k3, PS): the target mRNA inhibition is 2%.

TGCGCTTAAGAGGGCA (sugars k3 d10 k3, PS): the target mRNA inhibition amounted to 7%.

On to CAAGTAAGCCCCACCC (sugars k3 d10 k3, PS), for which the target mRNA inhibition turned out to be 26%.

As for AACGGGTCATCAAACA (sugars k3 d10 k3, PS), the target mRNA inhibition is -25%.

As to CGCAACTGAGCCCCAG (sugars k3 d10 k3, PS), the target mRNA inhibition came out at 18%.

Consider CGACTTGCTCCCAAGA (sugars k3 d10 k3, PS), for which the target mRNA inhibition was found to be 22%.

Turning to CTCCTGAGATGACTGA (sugars k3 d10 k3, PS), the target mRNA inhibition was 39%.

On to TAGAGCTACTTAGCTG (sugars k3 d10 k3, PS), for which the target mRNA inhibition is 18%.

For ACATTAAGTTGGTAAT (sugars k3 d10 k3, PS), the target mRNA inhibition worked out at 4%.
